Test results published in US8728516B2, “Stabilized lipid formulation of apoptosis promoter” (AbbVie Inc., priority 2009, dated 2014).

Key:
[1] = Sulfoxide formation in various lipid solutions, two-week stress test (Example 4); assay type: physicochemical; details: in Labrafil M 1944 CS and Plurol Oleique CC497; two-week stress test 40°C
[2] = Drug solubility in ternary excipient systems (Example 2); assay type: physicochemical; details: 10% salt, 20% free base by weight
Source text: Solvents evaluated included Labrafil M 1944 CS™, Imwitor 742™ oleic acid, Capmul PG-8™, Capmul PG-12™, Lauroglycol 90™ (propylene glycol monolaurate, available from Gattefosse) and Phosal 53 MCT™. Surfactants evaluated included Tween 80™, Cremophor RH40™, Gelucire 44/14™ (polyoxyethylene glyceryl laurate, available from Gattefosse) and Labrasol™.

[3] = BHA as antioxidant in ternary lipid systems (Example 7); assay type: physicochemical
Protocol: A full report of this study is found in Example 7 herein.
Testing was done in stress conditions at 40° C. without nitrogen purging.

[4] = Antioxidant testing, two-week stress test (Example 6); assay type: physicochemical; details: for inhibition of oxidative degradation: ABT-263 free base 100 mg/g in LIT-433 vehicle system, at the concentrations tested
[5] = Storage stability of prototype capsules with and without NaMTBS (Example 12); assay type: physicochemical; details: prototype ABT-263 capsules, especially at 40° C. and 75% RH
Source text: The only difference between the two batches is presence or absence of antioxidant (sodium metabisulfite). The liquids having the composition shown in Table 16 were encapsulated in size 0 hard gelatin capsules and the capsules placed in blister packaging for a chemical stability study. Water content shown in Table 17 is as determined by analysis, and is not directly related to amount of water added with NaMTBS and edetate calcium disodium as in Table 16.

[6] = assay type: physicochemical
Source text: Due to poor lipid solubility of NaMTBS, an alternative way of introducing it to the lipid solution is by adding a concentrated aqueous stock solution of NaMTBS to the lipid solution.

[7] = Sulfoxide formation, free base vs bis-HCl salt in lipid solution (Example 3); assay type: physicochemical; details: lipid solutions (PE-91, LOT-343) aged at 40°C for up to 3 weeks
Protocol: The solvent system in solution A is Phosal 53 MCT™/ethanol, 9:1 v/v; and in solution B is Labrafil M 1944 CS™/oleic acid/polysorbate 80, 30%/40%/30% by weight. (Labrafil M 1944 CS™ of Gattefossé contains polyoxyethylene glyceryl monooleate.) The three-week study was conducted at 40° C. without nitrogen purging of headspace. […] No antioxidant was included, nor was headspace nitrogen purging performed.

[8] = C8LL (Capmul PG-8/Labrafil M 1944 CS/Labrasol) 40:40:20
[9] = C12LT (Capmul PG-12/Labrafil M 1944 CS/Tween 80) 30:40:30
[10] = C12LT (Capmul PG-12/Labrafil M 1944 CS/Tween 80) 35:40:25
[11] = C12LT (Capmul PG-12/Labrafil M 1944 CS/Tween 80) 40:30:30
[12] = C12LT (Capmul PG-12/Labrafil M 1944 CS/Tween 80) 45:30:25
[13] = LLC (Lauroglycol 90/Labrafil M 1944 CS/Cremophor RH40) 45:30:25
[14] = LLL (Lauroglycol 90/Labrafil M 1944 CS/Labrasol) 40:40:20
[15] = LLL (Lauroglycol 90/Labrafil M 1944 CS/Labrasol) 50:30:20
[16] = LOC (Labrafil M 1944 CS/oleic acid/Cremophor RH40) 30:60:10
[17] = LOC (Labrafil M 1944 CS/oleic acid/Cremophor RH40) 40:50:10
[18] = LOT (Labrafil M 1944 CS/oleic acid/Tween 80) 30:40:30
[19] = LOT (Labrafil M 1944 CS/oleic acid/Tween 80) 30:45:25
[20] = LOT (Labrafil M 1944 CS/oleic acid/Tween 80) 40:30:30
[21] = LOT (Labrafil M 1944 CS/oleic acid/Tween 80) 40:35:25
[22] = OLL (oleic acid/Labrafil M 1944 CS/Labrasol) 40:40:20
[23] = OLL (oleic acid/Labrafil M 1944 CS/Labrasol) 50:30:20
[24] = OLL (oleic acid/Labrafil M 1944 CS/Labrasol) 50:40:10
[25] = OLL (oleic acid/Labrafil M 1944 CS/Labrasol) 60:30:10

Compound: CC1(C)CCC(c2ccc(Cl)cc2)=C(CN2CCN(c3ccc(C(=O)NS(=O)(=O)c4ccc(N[C@H](CCN5CCOCC5)CSc5ccccc5)c(S(=O)(=O)C(F)(F)F)c4)cc3)CC2)C1 [ABT-263]
- degradation [1]: significant degradation
- ABT-263 solubility [2, 8]: ✓
- ABT-263 solubility [2, 9]: ✓
- ABT-263 solubility [2, 10]: ✓
- ABT-263 solubility [2, 11]: ✓
- ABT-263 solubility [2, 12]: ✓
- ABT-263 solubility [2, 13]: ✓
- ABT-263 solubility [2, 14]: ✓
- ABT-263 solubility [2, 15]: ✓
- ABT-263 solubility [2, 16]: ✓
- ABT-263 solubility [2, 17]: ✓
- ABT-263 solubility [2, 18]: ✓
- ABT-263 solubility [2, 19]: ✓
- ABT-263 solubility [2, 20]: ✓
- ABT-263 solubility [2, 21]: ✓
- ABT-263 solubility [2, 22]: ✓
- ABT-263 solubility [2, 23]: ✓
- ABT-263 solubility [2, 24]: ✓
- ABT-263 solubility [2, 25]: ✓

Compound: COc1ccc(O)c(C(C)(C)C)c1 [BHA, butylated hydroxyanisole]
- effect on sulfoxide formation ([3]; 0.2% by weight BHA in 15% by weight ABT-263 free base in IPT-253, 4-week study at 40°C without nitrogen purging): no effect
- inhibition of sulfoxide formation ([3]; 0.2% w/w BHA, ABT-263 150 mg/g in IPT-253 and LIT-433, 40°C without nitrogen purging): did not provide any inhibition
- inhibition of oxidative degradation [4]: inhibited oxidative degradation to some extent

Compound: Cc1cc(C(C)(C)C)c(O)c(C(C)(C)C)c1 [BHT, butylated hydroxytoluene]
- inhibition of oxidative degradation [4]: inhibited oxidative degradation to some extent

Compound: α-tocopherols
- inhibition of oxidative degradation [4]: ineffective

Compound: CCCCCCCCCCCCCCCC(=O)OC[C@H](O)[C@H]1OC(=O)C(O)=C1O [ascorbyl palmitate]
- inhibition of oxidative degradation [4]: inhibited oxidative degradation to some extent

Compound: OCC(O)CS (centres unmarked) [Thioglycerol, thioglycerol]
- inhibition of drug oxidation ([4]; ABT-263 free base 100 mg/g, both vehicle systems (Lipoid S75 MCT, LIT-433)): effective inhibition

Compound: O=S([O-])S(=O)(=O)[O-].[Na+].[Na+] [sodium metabisulfite]
- inhibition of oxidative degradation [4]: inhibited oxidative degradation to some extent
- inhibition of formation of total sulfoxides [5]: significantly inhibited
- final NaMTBS concentration giving a clear solution [6]: ≤ 9.67 mg/mL
- final NaMTBS concentration at which the lipid solution turned turbid ([6]; 50 mg/ml free base solution in Phosal 53 MCT/ethanol 9:1 v/v, 15% w/v stock solution): ≥ 150 % relative molar concentration
- solubility of neat NaMTBS (solids remained) ([6]; 5 days): < 0.05 % w/w

Compound: O=S([O-])([O-])=S.[Na+].[Na+] [sodium thiosulfate]
- inhibition of oxidative degradation [4]: inhibited oxidative degradation to some extent

Compound: CC1(C)CCC(c2ccc(Cl)cc2)=C(CN2CCN(c3ccc(C(=O)NS(=O)(=O)c4ccc(N[C@H](CCN5CCOCC5)CSc5ccccc5)c(S(=O)(=O)C(F)(F)F)c4)cc3)CC2)C1.Cl.Cl [ABT-263 bis-HCl salt]
- color change upon aging [7]: pronounced color darkening
- ABT-263 solubility [2, 8]: ✓
- ABT-263 solubility [2, 9]: ✓
- ABT-263 solubility [2, 10]: ✓
- ABT-263 solubility [2, 11]: ✓
- ABT-263 solubility [2, 12]: ✓
- ABT-263 solubility ([2]; ILC (Imwitor 742/Labrafil M 1944 CS/Cremophor RH40) 40:40:20): ✓
- ABT-263 solubility ([2]; ILC (Imwitor 742/Labrafil M 1944 CS/Cremophor RH40) 50:30:20): ✓
- ABT-263 solubility ([2]; ILC (Imwitor 742/Labrafil M 1944 CS/Cremophor RH40) 50:40:10): ✓
- ABT-263 solubility ([2]; ILC (Imwitor 742/Labrafil M 1944 CS/Cremophor RH40) 60:30:10): ✓
- ABT-263 solubility ([2]; ILL (Imwitor 742/Labrafil M 1944 CS/Labrasol) 40:40:20): ✓
- ABT-263 solubility ([2]; ILL (Imwitor 742/Labrafil M 1944 CS/Labrasol) 50:30:20): ✓
- ABT-263 solubility ([2]; ILL (Imwitor 742/Labrafil M 1944 CS/Labrasol) 50:40:10): ✓
- ABT-263 solubility ([2]; ILL (Imwitor 742/Labrafil M 1944 CS/Labrasol) 60:30:10): ✓
- ABT-263 solubility ([2]; LIT (Labrafil M 1944 CS/Imwitor 742/Tween 80) 30:40:30): ✓
- ABT-263 solubility ([2]; LIT (Labrafil M 1944 CS/Imwitor 742/Tween 80) 30:45:25): ✓
- ABT-263 solubility ([2]; LIT (Labrafil M 1944 CS/Imwitor 742/Tween 80) 40:30:30): ✓
- ABT-263 solubility ([2]; LIT (Labrafil M 1944 CS/Imwitor 742/Tween 80) 40:35:25): ✓
- ABT-263 solubility [2, 13]: ✓
- ABT-263 solubility [2, 14]: ✓
- ABT-263 solubility [2, 15]: ✓
- ABT-263 solubility ([2]; LLL (Lauroglycol 90/Labrafil M 1944 CS/Labrasol) 50:40:10): ✓
- ABT-263 solubility ([2]; LLL (Lauroglycol 90/Labrafil M 1944 CS/Labrasol) 60:30:10): ✓
- ABT-263 solubility [2, 16]: ✓
- ABT-263 solubility [2, 17]: ✓
- ABT-263 solubility [2, 18]: ✓
- ABT-263 solubility [2, 19]: ✓
- ABT-263 solubility [2, 20]: ✓
- ABT-263 solubility [2, 21]: ✓
- ABT-263 solubility [2, 22]: ✓
- ABT-263 solubility [2, 23]: ✓
- ABT-263 solubility [2, 24]: ✓
- ABT-263 solubility [2, 25]: ✓
